The conditions of series [1]: in vivo.
The subject of another series is rabbits (eye). The settings on record: rabbit, in vivo.
Another series concerns rabbits (dermal). Particulars: rabbit, in vivo.

Regarding PPG-20 Methyl Glucose Ether Distearate, the “Comedogenic Assay” value in series [1] was “Non-comedogenic”. In the series on rabbits (eye), the Draize test score entry is “negligible” and the Eye irritation result is “Practically non-irritating”. Besides, in the series with rabbits (dermal), the Primary dermal irritant result is recorded as “not a primary dermal irritant” and the Primary dermal irritation result is listed as “Not a primary dermal irritant”.

Source of the values: patent US4687843A, “Esterified propoxylated glucose compositions” (Amerchol Corporation, priority 1986, dated 1987).
